Measurements as given in patent US20210238162A1, “CHEMICAL COMPOUNDS” (GlaxoSmithKline Intellectual Property Development Limited, priority 2015, published 2021).
Where a name gives a salt, the structure may show the parent alone. Read-outs that look alike come from different tables or passages of the source.

Biological target: T1, haematopoietic prostaglandin D synthase (H-PGDS) (Homo sapiens, UniProt O60760)
T1 construct: Full length human H-PGDS cDNA (Invitrogen Ultimate ORF IOH13026) was amplified by PCR; made in house; host or cells: E. coli BL21 (DE3*), vector pET22b+
Test: H-PGDS RapidFire High Throughput Mass Spectrometry Assay
Assay type: biochemical
Description: The H-PGDS RapidFire™ mass spectrometric assay monitors conversion of prostaglandin H2 (PGH2) to prostaglandin D2 (PGD2) by haematopoietic prostaglandin D synthase (H-PGDS). In the assay format described here, the substrate (PGH2) is formed in situ by the action of cyclooxygenase-2 on arachidonic acid. This first step is set up to be fast, and generates a burst of PGH2 at ˜10 μM. The PGH2 is then further converted to PGD2 by the H-PGDS enzyme. […] Plates are then read on the RapidFire™ high throughput solid phase extraction system (Agilent) which incorporates a solid phase extraction step coupled to a triple quadrupole mass spectrometer (AB SCIEX). Relative levels of PGD2 and PGF2α, which acts as a surrogate for substrate, are measured and a percent conversion calculated.
Full length human H-PGDS cDNA (Invitrogen Ultimate ORF IOH13026) was amplified by PCR with the addition of a 5′ 6-His tag and TEV protease cleavage site. The PCR product was digested with Ndel and Xhol and ligated into pET22b+ (Merck Novagen®). Expression was carried out in E. coli strain BL21 (DE3*) using auto-induction Overnight Express™ Instant TB medium (Merck Novagen®) supplemented with 1% glycerol. The culture was first grown at 37° C. and the temperature was reduced to 25° C. when OD600 reached 2.0. Cells were harvested by centrifugation after a further 18 hr. 10 g of E. coli cell pellet was suspended to a total volume of 80 mL in lysis buffer (20 mM Tris-Cl pH 7.5, 300 mM NaCl, 20 mM imidazole, 5 mM β-mercaptoethanol, 10% glycerol). 1 mg/mL protease inhibitors (Protease Inhibitor Cocktail Set Ill, Merck Calbiochem®) and 1 mg/mL lysozyme were added to the cell suspension. The suspension was then sonicated for 5 min (UltraSonic Processor VCX 750, Cole-Parmer Instrument Co.) with a micro probe (50% amplitude, 10 sec on/off) and then centrifuged at 100,000 g for 90 min (at 4° C.). The supernatant was loaded onto a Ni-NTA HiTrap column (5 mL, GE Heathcare, pre-equilibrated in lysis buffer). The column was washed with 10 column volumes of lysis buffer and eluted with lysis buffer containing 500 mM imidazole. The pooled protein peak fractions were concentrated using a 10 kDa centrifugal filter at 3500 g and 4° C. (Amicon Ultra-15 centrifugal filter unit with Ultracel-10 membrane from Millipore). Further purification of the concentrated protein was carried out using gel filtration chromatography on a HiLoad 26/600 Superdex 75 preparative grade column (GE Healthcare Life Sciences) using 50 mM Tris pH 7.5, 50 mM NaCl, 1 mM dithiothreitol, 1 mM MgCl2. Fractions containing the protein were pooled, concentrated as described above, and stored at −80° C.
The full length human COX-2 gene (accession number L15326) was amplified by PCR to generate an EcoRI-HindIII fragment containing an in-frame FLAG tag. This was subcloned into pFastBac 1 (Invitrogen). The COX2 FLAG plasmid was recombined into the baculovirus genome according to the BAC-to-BAC protocol described by Invitrogen. Transfection into Spodoptera frugiperda (Sf9) insect cells was performed using Cellfectin (Invitrogen), according to the manufacturer's protocol. […] Recombinant virus was added at a Multiplicity of Infection (MOI) of 5 and the culture was allowed to continue for 3 days. Cells were harvested using a continuous feed centrifuge run at 2500 g at a rate of approximately 2 L/min with cooling. The resultant cell slurry was re-centrifuged in pots (2500 g, 20 min, 4° C.) and the cell paste was stored at −80° C. […] The suspension was sonicated in 500 mL batches for 8×5 seconds at 10 u amplitude with the medium tip of an MSE probe sonicator and subsequently incubated at 4° C. for 90 min with gentle stirring. The lysate was centrifuged at 12000 rpm for 45 min at 4° C. in a Sorvall SLA1500 rotor. The supernatant (1400 mL) was added to 420 mL of 20 mM Tris-Cl pH 7.4, 150 mM NaCl, 0.1 mM EDTA to reduce the concentration of n-octyl-β-D-glucopyranoside to 1% w/v.

[1] = H-PGDS RapidFire MS assay, mean pIC50, read-out: Potency Range (mean pIC50) (converted)

T1 sequence (O60760 whole entry): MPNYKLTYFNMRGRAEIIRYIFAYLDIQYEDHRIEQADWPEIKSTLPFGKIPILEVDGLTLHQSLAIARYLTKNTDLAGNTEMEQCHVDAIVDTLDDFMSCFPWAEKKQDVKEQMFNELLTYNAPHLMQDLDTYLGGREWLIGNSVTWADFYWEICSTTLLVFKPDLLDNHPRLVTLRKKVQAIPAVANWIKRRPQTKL

SMILES | IC50 [1] | IC50 (in at least one experimental run, read-out: H-PGDS pIC50 value (converted))
CC(C)(O)[C@H]1CC[C@H](NC(=O)c2cnc3cc(OC(F)F)c(F)cc3c2)CC1 [Example 51, 7-(Difluoromethoxy)-6-fluoro-N-(trans-4-(2-hydroxypropan-2-yl)cyclohexyl)quinoline-3-carboxamide] | 10 to 79.4 nM | –
O=C(N[C@H]1CCC[C@H]1O)c1cnc2cc(OC(F)F)c(F)cc2c1 [Example 52, 7-(Difluoromethoxy)-6-fluoro-N-((1S,2R)-2-hydroxycyclopentyl)quinoline-3-carboxamide] | 100 to 1000 nM | –
O=C(N[C@H]1CCN(CC2CC2)C1=O)c1cnc2cc(OC(F)F)c(F)cc2c1 [Example 53, (S)—N-(1-(Cyclopropylmethyl)-2-oxopyrrolidin-3-yl)-7-(difluoromethoxy)-6-fluoroquinoline-3-carboxamide] | 10 to 79.4 nM | –
O=C1CC(NC(=O)c2cnc3cc(OC(F)F)c(F)cc3c2)c2ccccc2N1 (stereo not shown) [Example 54, 7-(Difluoromethoxy)-6-fluoro-N-(2-oxo-1,2,3,4-tetrahydroquinolin-4-yl)quinoline-3-carboxamide] | 10 to 79.4 nM | –
CO[C@H]1CC[C@H](NC(=O)c2cnc3cc(OC(F)F)c(F)cc3c2)CC1 [Example 55, 7-(Difluoromethoxy)-6-fluoro-N-(trans-4-methoxycyclohexyl)quinoline-3-carboxamide] | 10 to 79.4 nM | –
CS(=O)(=O)N[C@H]1CC[C@H](NC(=O)c2cnc3cc(OC(F)F)c(F)cc3c2)CC1 [Example 56, 7-(Difluoromethoxy)-6-fluoro-N-(trans-4-(methylsulfonamido)cyclohexyl)quinoline-3-carboxamide] | 10 to 79.4 nM | –
CC(N[C@H]1CC[C@H](NC(=O)c2cnc3cc(OC(F)F)c(F)cc3c2)CC1)C(F)(F)F (stereo partly drawn) [Example 57, 7-(Difluoromethoxy)-6-fluoro-N-(trans-4-((1,1,1-trifluoropropan-2-yl)amino)cyclohexyl)quinoline-3-carboxamide] | 10 to 79.4 nM | –
O=C(NC1CCN(CC(F)(F)F)CC1)c1cnc2cc(OC(F)F)c(F)cc2c1 [Example 58, 7-(Difluoromethoxy)-6-fluoro-N-(1-(2,2,2-trifluoroethyl)piperidin-4-yl)quinoline-3-carboxamide] | 10 to 79.4 nM | –
O=C(N[C@H]1C[C@H](NCC(F)(F)F)C1)c1cnc2cc(OC(F)F)c(F)cc2c1 [Example 59, 7-(Difluoromethoxy)-6-fluoro-N-(trans-3-((2,2,2-trifluoroethyl)amino)cyclobutyl)quinoline-3-carboxamide] | 10 to 79.4 nM | 50.1 nM
CC(C)(O)CO[C@H]1CC[C@H](NC(=O)c2cnc3cc(OC(F)F)c(F)cc3c2)CC1 [Example 60, 7-(Difluoromethoxy)-6-fluoro-N-(trans-4-(2-hydroxy-2-methylpropoxy)cyclohexyl)quinoline-3-carboxamide] | 10 to 79.4 nM | –
C[C@@H](N[C@H]1CC[C@H](NC(=O)c2cnc3cc(OC(F)F)c(F)cc3c2)CC1)C(F)(F)F [Example 62, 7-(Difluoromethoxy)-6-fluoro-N-(trans-4-(((R)-1,1,1-trifluoropropan-2-yl)amino)cyclohexyl)quinoline-3-carboxamide] | 10 to 79.4 nM | –
C[C@H](N[C@H]1CC[C@H](NC(=O)c2cnc3cc(OC(F)F)c(F)cc3c2)CC1)C(F)(F)F [Example 63, 7-(Difluoromethoxy)-6-fluoro-N-(trans-4-(((S)-1,1,1-trifluoropropan-2-yl)amino)cyclohexyl)quinoline-3-carboxamide] | < 10 nM | –
O=C(N[C@@H]1CC[C@@H](NCC(F)(F)F)C1)c1cnc2cc(OC(F)F)c(F)cc2c1 [Example 64, 7-(difluoromethoxy)-6-fluoro-N-((1R,3R)-3-((2,2,2-trifluoroethyl)amino)cyclopentyl)quinoline-3-carboxamide] | 10 to 79.4 nM | –
O=C(NC1CCN(CC(F)F)CC1)c1cnc2cc(OC(F)F)c(F)cc2c1 [Example 65, N-(1-(2,2-Difluoroethyl)piperidin-4-yl)-7-(difluoromethoxy)-6-fluoroquinoline-3-carboxamide] | 10 to 79.4 nM | –
CC(C)(N[C@H]1CC[C@H](NC(=O)c2cnc3cc(OC(F)F)c(F)cc3c2)CC1)C(F)(F)F [Example 66, 7-(Difluoromethoxy)-6-fluoro-N-(trans-4-((1,1-trifluoro-2-methylpropan-2-yl)amino)cyclohexyl)quinoline-3-carboxamide] | < 10 nM | –
CC(N[C@H]1CC[C@H](NC(=O)c2cnc3cc(OC(F)F)c(F)cc3c2)CC1)C(F)F (stereo partly drawn) [Example 67, 7-(Difluoromethoxy)-N-(trans-4-((1,1-difluoropropan-2-yl)amino)cyclohexyl)-6-fluoroquinoline-3-carboxamide] | 10 to 79.4 nM | –
O=C(NC1CCC(N2CCOCC2)CC1)c1cnc2cc(OC(F)F)c(F)cc2c1 (stereo not shown) [Example 68, 7-(Difluoromethoxy)-6-fluoro-N-(4-morpholinocyclohexyl)quinoline-3-carboxamide trifluoroacetic Acid Salt] | 10 to 79.4 nM | –
C[C@@H](N[C@H]1CC[C@H](NC(=O)c2cnc3cc(OC(F)F)c(F)cc3c2)CC1)C(F)F [Example 69, 7-(Difluoromethoxy)-N-(trans-4-(((R)-1,1-difluoropropan-2-yl)amino)cyclohexyl)-6-fluoroquinoline-3-carboxamide] | 10 to 79.4 nM | –
C[C@H](N[C@H]1CC[C@H](NC(=O)c2cnc3cc(OC(F)F)c(F)cc3c2)CC1)C(F)F [Example 70, 7-(Difluoromethoxy)-N-(trans-4-(((S)-1,1-difluoropropan-2-yl)amino)cyclohexyl)-6-fluoroquinoline-3-carboxamide] | < 10 nM | –
O=C(N[C@H]1CC[C@H](N2CC(F)(F)C2)CC1)c1cnc2cc(OC(F)F)c(F)cc2c1 [Example 71, N-(trans-4-(3,3-Difluoroazetidin-1-yl)cyclohexyl)-7-(difluoromethoxy)-6-fluoroquinoline-3-carboxamide] | 10 to 79.4 nM | –
CCOC(=O)c1cnc(N2CCC(NC(=O)c3cnc4cc(OC(F)F)c(F)cc4c3)CC2)o1 [Example 72, Ethyl 2-(4-(7-(difluoromethoxy)-6-fluoroquinoline-3-carboxamido)piperidin-1-yl)oxazole-5-carboxylate] | 10 to 79.4 nM | –
C[C@H](N[C@H]1C[C@H](NC(=O)c2cnc3cc(OC(F)F)c(F)cc3c2)C1)C(F)F [Example 73, 7-(Difluoromethoxy)-N-(trans-3-(((S)-1,1-difluoropropan-2-yl)amino)cyclobutyl)-6-fluoroquinoline-3-carboxamide] | 10 to 79.4 nM | –
C[C@@H](N[C@H]1C[C@H](NC(=O)c2cnc3cc(OC(F)F)c(F)cc3c2)C1)C(F)F [Example 74, 7-(Difluoromethoxy)-N-(trans-3-(((R)-1,1-difluoropropan-2-yl)amino)cyclobutyl)-6-fluoroquinoline-3-carboxamide] | 10 to 79.4 nM | –
CC(O)(CO[C@H]1CC[C@H](NC(=O)c2cnc3cc(OC(F)F)c(F)cc3c2)CC1)C(F)(F)F (stereo partly drawn) [Example 76, 7-(Difluoromethoxy)-6-fluoro-N-(trans-4-(3,3,3-trifluoro-2-hydroxy-2-methylpropoxy)cyclohexyl)quinoline-3-carboxamide] | 10 to 79.4 nM | –
